How the values were obtained:
[1] = oral dosing, rats; Raoof et al., Pharm. Res. 1996; cited from earlier work
human SMVT (SLC5A6) = target: T1, human SMVT (SLC5A6) (Homo sapiens, UniProt Q9Y289); experiment: Electrogenic transport in SMVT-expressing Xenopus oocytes (two-electrode voltage-clamp); format: cell-based; conditions: tested at 0.5 mM on oocytes expressing SMVT; membrane potential -60 mV
T1 construct: The complete open reading frame of human SMVT (SLC5A6) was amplified; expressed in transfected cells; host or cells: Xenopus oocytes injected with cRNA transcribed in vitro from the pMO plasmid
T1 sequence (Q9Y289 1-635): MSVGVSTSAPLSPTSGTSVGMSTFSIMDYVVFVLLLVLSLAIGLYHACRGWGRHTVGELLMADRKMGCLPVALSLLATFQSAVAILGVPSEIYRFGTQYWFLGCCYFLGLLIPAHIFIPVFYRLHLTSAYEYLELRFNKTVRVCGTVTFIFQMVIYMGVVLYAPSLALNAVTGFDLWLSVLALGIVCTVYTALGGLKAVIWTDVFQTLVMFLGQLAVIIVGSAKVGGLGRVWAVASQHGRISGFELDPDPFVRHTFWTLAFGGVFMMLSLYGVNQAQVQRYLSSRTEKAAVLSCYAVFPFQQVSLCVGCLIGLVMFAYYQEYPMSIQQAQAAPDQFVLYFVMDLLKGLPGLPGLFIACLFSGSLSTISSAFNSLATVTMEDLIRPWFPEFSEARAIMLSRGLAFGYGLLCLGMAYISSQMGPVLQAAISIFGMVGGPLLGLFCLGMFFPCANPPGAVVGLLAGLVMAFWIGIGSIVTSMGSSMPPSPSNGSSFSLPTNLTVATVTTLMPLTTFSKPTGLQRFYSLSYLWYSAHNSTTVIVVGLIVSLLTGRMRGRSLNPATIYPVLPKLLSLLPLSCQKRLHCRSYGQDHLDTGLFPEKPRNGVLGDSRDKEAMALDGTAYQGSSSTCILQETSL
From the text: Transporter Cloning: The complete open reading frame of human SMVT (SLC5A6) was amplified from human cDNA prepared from intestinal mRNA. Gene-specific oligonucleotide primers were designed against Genbank sequences (NM-021095). Amplified PCR products were cloned into a modified version of the mammalian expression vector pcDNA3 (termed pMO) that was engineered to contain the 5′ and 3′ untranslated regions from the Xenopus beta-globin gene. All clones were completely sequenced and tested for function by transient transfection in HEK293 cells. Radiolabeled ^3H biotin was used to assess SMVT function (see method below).
Xenopus Oocyte Expression and Electrophysiology: cRNA for oocyte expression was prepared by linearization of plasmid cDNA and in vitro transcription using T7 polymerase (Epicentre Ampliscribe kit). Xenopus oocytes were prepared and maintained as previously described (Collins et al., Proc. Natl. Acad. Sci. 1997, 13:5456-5460) and injected with 10-30 ng RNA. Transport currents were measured 2-6 days later using two-electrode voltage-clamp (Axon Instruments). […] Half-maximal concentrations were calculated using non-linear regression curve fitting software (Prism) with the Hill co-efficient fixed to 1. […]

Structure (SMILES) | fraction of administered drug undergoing first pass metabolism [1] | SMVT-specific currents above background, normalized to maximal biotin elicited current (human SMVT (SLC5A6))
CC(C)c1cccc(C(C)C)c1O [Propofol, 2,6-diisopropylphenol] | approximately 90% | –
CC(C)c1cccc(C(C)C)c1OC(=O)c1ccccc1C(=O)NCCC(=O)O [Compound 101, 3-{[2-[2,6-Bis(isopropyl)phenoxycarbonyl]-benzoyl]amino}-propanoic acid] | – | at least 10 % of Imax for biotin
